The assay concerns MTT (mouse pheochromocytoma). In words: IC50 of cell viability (ATP content). The settings on record: (24 or 48 h). In outline: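 Library compounds in DMSO (23 nl by pintool, 8 concentrations, final 0.5 nM to 46 µM) were applied for 24 or 48 hrs to MTT mouse pheochromocytoma cells that had been cultured overnight at 37°C, 5% CO2 in white 1536-well plates. Cell viability was measured by CellTiter-Glo ATP luminescence, read after 15 minutes, with positive-control wells set at 100% and DMSO wells at 0%. A four-parameter logistic fit of the normalised signals yielded the IC50.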

Structures can show the parent of a compound that is named as a salt.

With `O=[P@@]1(NCCCl)OCCCN1CCCl` [Ifosfamide], the “IC50 of cell viability” value is more than 46 µM.
On to `CCCCCCCCCCCCCCCCSCC(COC)COP(=O)([O-])OCC[N+](C)(C)C` (stereo unspecified) [Ilmofosine], for which the “IC50 of cell viability” value was more than 46 µM.
As to `COc1cc(C(C)=O)ccc1OCCCN1CCC(c2noc3cc(F)ccc23)CC1` [Iloperidone], the “IC50 of cell viability” value was more than 46 µM.
For the compound `CC#CCC(C)[C@H](O)/C=C/C1[C@H](O)C[C@@H]2C/C(=C\CCCC(=O)O)C[C@H]12` (stereo partly specified) [Iloprost], the “IC50 of cell viability” value is more than 46 µM.
The same measure for `C=CCOC(Cn1ccnc1)c1ccc(Cl)cc1Cl` (stereo unspecified) [Imazalil sulphate]: more than 46 µM; for `O=C1CC\C(=N/N1)C2=CC=C(C=C2)[N]3C=CN=C3` [Imazodan]: more than 46 µM.
Take `O=C(NCNC(=O)NC1C(=O)NC(=O)N1CO)NC1C(=O)NC(=O)N1CO` (stereo unspecified) [Imidazolidinyl urea]: the “IC50 of cell viability” value was more than 46 µM.
As for `CCC(=O)O.CCC(=O)O.O=C(Nc1cccc(C2=NCCN2)c1)Nc1cccc(C2=NCCN2)c1` [Imidocarbe], the “IC50 of cell viability” value is more than 46 µM.
The same measure for `C[C@H](O)[C@H]1[C@@H]2C\C(=C(/N2C1=O)C(O)=O)SCCNC=N` [Imipenem]: more than 46 µM.
For `C\C(C)=C\[C@@H]1[C@@H](C(=O)OCN2C(=O)CN(CC#C)C2=O)C1(C)C` [Imiprothrin] the value was more than 46 µM; for `CC(C)Cn1cnc2c(N)nc3ccccc3c21` [Imiquimod], more than 46 µM; for `C[S+](=O)([O-])OCCC[NH2+]CCCO[S+](C)(=O)[O-]` [Improsulfan tosylate], more than 46 µM.
On to `c1ccc2c(CCC3CC[NH2+]CC3)c[nH]c2c1` [Indalpine], for which the “IC50 of cell viability” value was more than 46 µM.
For `CN[C@@H]1C[C@@H](c2ccc(Cl)c(Cl)c2)c2ccccc21.Cl` [Indatraline hydrochloride] the value was more than 46 µM; for `O=C1/C(=C2\Nc3ccc(S(=O)(=O)O)cc3C2=O)Nc2ccc(S(=O)(=O)O)cc21` [Indigo carmine], more than 46 µM.
In the case of `O=C1/C(=C2\Nc3ccc([S+](=O)([O-])O)cc3C2=O)Nc2ccc([S+](=O)([O-])O)cc21` [Indigo carmine], the “IC50 of cell viability” value was more than 46 µM.
The same measure for `O=C1/C(=C2/Nc3ccc(S(=O)(=O)[O-])cc3C2=O)Nc2ccc(S(=O)(=O)[O-])cc21` [Indigo carmine]: more than 46 µM.
For `[Cl][In]([Cl])[Cl]` [Indium trichloride], the “IC50 of cell viability” value was more than 46 µM.
On to `Cc1c(C)n(Cc2ccccc2)c2ccc(C(=O)OCCN(C)C)cc12` [Indocate], for which the “IC50 of cell viability” value was more than 46 µM.
The same measure for `OCc1c[nH]c2ccccc12` [Indole-3-carbinol]: more than 46 µM; for `COc1ccc2c(c1)c(CC(=O)O)c(C)n2C(=O)c1ccc(Cl)cc1` [Indometacin]: more than 46 µM; for `COC(=O)C(CN)c1c[nH]c2ccc(OC)cc12` (stereo unspecified) [Indorenate hydrochloride]: more than 46 µM.
On to `CC(=O)N(C[C@@H](C)C(=O)O)c1c(I)cc(I)c(N)c1I` [Iocetamic acid], for which the “IC50 of cell viability” value was more than 46 µM.
For the compound `O=C(CCCCC(=O)Nc1c(I)cc(I)c(C(=O)O)c1I)Nc1c(I)cc(I)c(C(=O)O)c1I` [Iodipamide], the “IC50 of cell viability” value is more than 46 µM.
The same measure for `CC(=O)N(CC(O)CN(C(C)=O)c1c(I)c(C(=O)NC[C@@H](O)CO)c(I)c(C(=O)NC[C@@H](O)CO)c1I)c1c(I)c(C(=O)NC[C@@H](O)CO)c(I)c(C(=O)NC[C@@H](O)CO)c1I` [Iodixanol]: more than 46 µM; for `Oc1c(I)cc(Cl)c2cccnc12` [Iodochlorohydroxyquinoline]: more than 46 µM.
For `IC(I)I` [Iodoform] the value was more than 46 µM; for `CC(C)NC(C)Cc1ccc(I)cc1.Cl` (stereo unspecified) [Iofetamine hydrochloride], more than 46 µM; for `CC(=O)N(CC(O)CO)c1c(I)c(C(=O)NCC(O)CO)c(I)c(C(=O)NCC(O)CO)c1I` (stereo unspecified) [Iohexol], more than 46 µM.
For `CN(C(=O)CO)c1c(I)c(C(=O)NCC(O)CO)c(I)c(C(=O)NCC(O)CO)c1I` (stereo unspecified) [Iomeprol] the value was more than 46 µM; for `C[C@H](O)C(=O)Nc1c(I)c(C(=O)NC(CO)CO)c(I)c(C(=O)NC(CO)CO)c1I` [Iopamidol], more than 46 µM; for `COCC(=O)Nc1c(I)c(C(=O)NC[C@@H](O)CO)c(I)c(C(=O)N(C)C[C@@H](O)CO)c1I` [Iopromide], more than 46 µM.
As to `O=C(NC[C@@H](O)CO)c1c(I)c(C(=O)NC[C@@H](O)CO)c(I)c(N(CCO)C(=O)CO)c1I` [Ioversol], the “IC50 of cell viability” value is more than 46 µM.
The same measure for `CNC(=O)c1c(I)c(C(=O)NCC(=O)Nc2c(I)c(C(=O)O)c(I)c(C(=O)NCCO)c2I)c(I)c(N(C)C(C)=O)c1I` [Ioxaglic acid]: more than 46 µM; for `CC(=O)N(CC(O)CO)c1c(I)c(C(=O)NCCO)c(I)c(C(=O)NCC(O)CO)c1I` (stereo unspecified) [Ioxilan]: more than 46 µM.
The same measure for `CC(C)[N+]1(C)[C@@H]2CC[C@H]1CC(OC(=O)C(CO)c1ccccc1)C2` (stereo partly specified) [Ipratropium bromide monohydrate]: more than 46 µM.
For `CC(C)Oc1ccc2c(=O)c(-c3ccccc3)coc2c1` [Ipriflavone] the value was more than 46 µM; for `O=C1c2ccccc2[S+](=O)([O-])N1CCCCN1CCN(c2ncccn2)CC1` [Ipsapirone], more than 46 µM; for `O=C(O)CCCC/C=C(\c1ccccc1)c1cccnc1` [Isbogrel], more than 46 µM.
`CNC1C(O)C(OC2C(NC(=O)C(O)CN)CC(N)C(OC3OC(CN)C(O)C(O)C3O)C2O)OCC1(C)O` (stereo unspecified) [Isepamicin]: the “IC50 of cell viability” value was more than 46 µM.
For `CC(C)CCON=O` [Isoamyl nitrite] the value was more than 46 µM; for `CC(C)COC(=O)c1ccc(N)cc1` [Isobutamben], more than 46 µM.
On to `Cc1cc(C(=O)NNCc2ccccc2)no1` [Isocarboxazid], for which the “IC50 of cell viability” value is more than 46 µM.
Turning to `Clc1ccc([C@H](Cn2ccnc2)OCc2c(Cl)cccc2Cl)c(Cl)c1` [Isoconazole], the “IC50 of cell viability” value is more than 46 µM.
As for `CC[C@H](NC(C)C)[C@H](O)c1ccc(O)c(O)c1.C[S+](=O)([O-])O` [Isoetharine mesylate salt], the “IC50 of cell viability” value is more than 46 µM.
The same measure for `C/C=C/c1ccc(O)c(OC)c1` [Isoeugenol]: more than 46 µM; for `CC(=O)OCC(=O)[C@@]1(O)CC[C@@H]2[C@H]3CC\C4=C\C(=O)\C=C/[C@]4(C)[C@]3(F)[C@@H](O)C[C@@]12C` [Isoflupredone acetate]: more than 46 µM.
For `CN[C@@H](C)CC\C=C(/C)C.CN[C@@H](C)CC\C=C(/C)C.O[C@@H]([C@@H](O)[C@@H](O)C(O)=O)[C@H](O)C(O)=O` [Isometheptene mucate] the value was more than 46 µM; for `NNC(=O)c1ccncc1` [Isoniazid], more than 46 µM; for `CC(C)[N+](C)(CCC(C(N)=O)(c1ccccc1)c1ccccc1)C(C)C` [Isopropamide iodide], more than 46 µM.
The same measure for `C[C@H](N[C@@H](C)COc1ccccc1)[C@H](O)c1ccc(O)cc1` [Isoxsuprine hydrochloride]: more than 46 µM; for `COC(=O)\C1=C(/C)N\C(=C(/[C@H]1C2=CC=CC3=NON=C23)C(=O)OC(C)C)C` [Isradipine]: more than 46 µM; for `CO[C@H]1[C@@H](O[C@@H]2O[C@@H](C)[C@@H](O[C@H]3C[C@](C)(O)[C@H](OC(=O)CC(C)C)[C@H](C)O3)[C@@H](N(C)C)[C@H]2O)[C@H](CC=O)C[C@@H](C)[C@@H](O)/C=C\C=C/C[C@@H](C)OC(=O)C[C@H]1OC(C)=O` [Josamycin]: more than 46 µM.
On to `C=C(C)[C@H]1CN[C@H](C(=O)O)[C@H]1CC(=O)O` [KAINIC ACID], for which the “IC50 of cell viability” value was more than 46 µM.
The same measure for `NCC1O[C@@H](OC2C(N)C[C@H](N)[C@@H](O[C@H]3OC(CO)C(O)C(N)C3O)C2O)C(N)C(O)C1O` (stereo partly specified) [KANAMYCIN B]: more than 46 µM; for `O=C(c1ccc(F)cc1)C1CCN(CCn2c(=O)[nH]c3ccccc3c2=O)CC1` [KETANSERIN]: more than 46 µM; for `CN1CCC(=C2c3ccccc3CC(=O)c3sccc32)CC1` [KETOTIFEN]: more than 46 µM.
Consider `OC\C1=C\C(=O)\C(=C/O1)O` [KOJIC ACID], for which the “IC50 of cell viability” value is more than 46 µM.
Turning to `NC[C@@H]1O[C@@H](O[C@H]2[C@@H](O)[C@H](O[C@@H]3O[C@@H](CO)[C@H](O)[C@H](N)[C@@H]3O)[C@@H](N)C[C@H]2N)[C@H](O)[C@H](O)[C@@H]1O` [Kanamycin A sulfate], the “IC50 of cell viability” value was more than 46 µM.
For `CC(=O)N1CCN(c2ccc(OC[C@@H]3CO[C@@](Cn4ccnc4)(c4ccc(Cl)cc4Cl)O3)cc2)CC1` [Ketoconazole], the “IC50 of cell viability” value is more than 46 µM.
For the compound `C[C@@H](C(=O)O)c1cccc(C(=O)c2ccccc2)c1` [Ketoprofen], the “IC50 of cell viability” value was more than 46 µM.
For `O=C(c1ccccc1)c1ccc2n1CCC2C(=O)O` (stereo unspecified) [Ketorolac tris salt] the value was more than 46 µM.
For `NC(CO)(CO)CO.O=C(c1ccccc1)c1ccc2n1CC[C@H]2C(=O)O` [Ketorolac tromethamine] the value was more than 46 µM; for `COC1=C2O\C(=C/C(=O)C2=C(OC)C3=C1OC=C3)C` [Khellin], more than 46 µM.
The same measure for `O=C1C=C(CO)OCC1=O` [Kojic acid]: more than 46 µM.
For `N[C@@H](Cc1ccc(O)c(O)c1)C(=O)O` [L-3,4-DIHYDROXYPHENYL-ALANINE], the “IC50 of cell viability” value was more than 46 µM.

Values taken from the supplement of paper PMC3974653.
